According to the supplement of paper PMC12076712:

Tests used:
Test in all cases: pIC50, kinobeads binding competition
Details in all cases: cell material: Jurkat lysate
[1] = target: UniProt Q9Y2I7
[2] = target: BUB1 (UniProt O43683)
[3] = target: RPS6KA4 (UniProt O75676)
[4] = target: T1, UniProt Q13163
T1 sequence (whole entry): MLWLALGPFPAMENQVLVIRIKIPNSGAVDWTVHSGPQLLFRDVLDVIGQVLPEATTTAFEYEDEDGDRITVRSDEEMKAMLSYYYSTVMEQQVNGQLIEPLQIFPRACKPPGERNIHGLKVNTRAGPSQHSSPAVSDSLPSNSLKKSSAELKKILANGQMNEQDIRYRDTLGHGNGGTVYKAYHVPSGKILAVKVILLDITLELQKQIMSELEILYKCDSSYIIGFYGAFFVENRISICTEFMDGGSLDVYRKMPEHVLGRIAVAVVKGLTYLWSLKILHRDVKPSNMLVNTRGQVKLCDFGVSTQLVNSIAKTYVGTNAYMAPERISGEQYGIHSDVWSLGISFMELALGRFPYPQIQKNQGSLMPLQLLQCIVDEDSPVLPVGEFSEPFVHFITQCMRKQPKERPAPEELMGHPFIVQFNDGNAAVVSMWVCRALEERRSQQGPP

[5] = target: T2, PRKG2 (UniProt Q13237)
T2 sequence (whole entry): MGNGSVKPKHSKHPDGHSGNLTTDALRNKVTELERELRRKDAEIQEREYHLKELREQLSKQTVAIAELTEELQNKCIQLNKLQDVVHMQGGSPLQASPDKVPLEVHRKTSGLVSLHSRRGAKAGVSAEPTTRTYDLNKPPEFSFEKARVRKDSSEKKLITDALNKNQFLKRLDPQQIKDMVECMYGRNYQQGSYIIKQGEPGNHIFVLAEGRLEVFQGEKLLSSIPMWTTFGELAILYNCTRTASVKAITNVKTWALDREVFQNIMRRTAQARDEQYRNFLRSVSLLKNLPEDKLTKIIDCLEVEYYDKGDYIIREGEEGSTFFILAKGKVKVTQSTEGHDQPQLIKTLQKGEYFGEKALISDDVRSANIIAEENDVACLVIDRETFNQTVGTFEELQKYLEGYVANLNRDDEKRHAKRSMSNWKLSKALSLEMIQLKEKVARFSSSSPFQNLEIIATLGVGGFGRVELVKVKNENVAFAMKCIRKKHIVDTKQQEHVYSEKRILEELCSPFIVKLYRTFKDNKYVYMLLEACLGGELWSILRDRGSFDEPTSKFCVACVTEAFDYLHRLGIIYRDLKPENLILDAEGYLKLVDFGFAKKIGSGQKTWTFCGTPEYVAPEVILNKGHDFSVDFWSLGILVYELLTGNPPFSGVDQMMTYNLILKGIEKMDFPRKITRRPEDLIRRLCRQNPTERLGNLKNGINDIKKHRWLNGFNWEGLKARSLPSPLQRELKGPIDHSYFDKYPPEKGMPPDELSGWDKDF

[6] = target: CSK (UniProt P41240)
Sequence of CSK (P41240 whole entry, looked up): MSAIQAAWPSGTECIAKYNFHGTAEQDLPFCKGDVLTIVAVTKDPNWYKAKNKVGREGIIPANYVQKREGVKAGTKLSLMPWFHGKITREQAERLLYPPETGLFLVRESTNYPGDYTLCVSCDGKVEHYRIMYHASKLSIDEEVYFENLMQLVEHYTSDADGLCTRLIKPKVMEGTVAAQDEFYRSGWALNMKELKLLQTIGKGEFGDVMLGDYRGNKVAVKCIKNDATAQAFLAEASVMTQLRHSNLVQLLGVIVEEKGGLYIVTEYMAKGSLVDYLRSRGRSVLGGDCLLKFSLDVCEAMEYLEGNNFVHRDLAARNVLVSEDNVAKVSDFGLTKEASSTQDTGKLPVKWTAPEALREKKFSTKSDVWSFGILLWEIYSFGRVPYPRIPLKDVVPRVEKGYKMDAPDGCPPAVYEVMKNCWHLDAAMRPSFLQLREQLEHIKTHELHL

[7] = target: MELK (UniProt Q14680)
[8] = target: TESK2 (UniProt Q96S53)
[9] = target: UniProt Q8N4C8
[10] = target: UniProt Q13557
[11] = target: T3, UniProt Q13188
T3 sequence (whole entry): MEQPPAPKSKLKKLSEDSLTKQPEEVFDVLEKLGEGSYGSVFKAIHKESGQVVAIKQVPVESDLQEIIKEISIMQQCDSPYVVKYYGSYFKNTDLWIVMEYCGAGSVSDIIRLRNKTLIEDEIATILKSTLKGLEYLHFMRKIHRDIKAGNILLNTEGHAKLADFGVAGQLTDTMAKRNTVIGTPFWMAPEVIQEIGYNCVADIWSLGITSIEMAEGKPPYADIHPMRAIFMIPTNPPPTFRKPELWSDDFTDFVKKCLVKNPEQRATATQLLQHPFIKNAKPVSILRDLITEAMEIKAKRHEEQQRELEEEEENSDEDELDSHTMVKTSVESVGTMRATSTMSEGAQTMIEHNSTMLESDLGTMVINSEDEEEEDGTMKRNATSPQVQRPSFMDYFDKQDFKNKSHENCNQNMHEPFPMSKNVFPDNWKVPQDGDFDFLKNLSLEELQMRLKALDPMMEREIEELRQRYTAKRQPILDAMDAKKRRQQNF

[12] = target: MAST4 (UniProt O15021)
Sequence of MAST4 (O15021 whole entry): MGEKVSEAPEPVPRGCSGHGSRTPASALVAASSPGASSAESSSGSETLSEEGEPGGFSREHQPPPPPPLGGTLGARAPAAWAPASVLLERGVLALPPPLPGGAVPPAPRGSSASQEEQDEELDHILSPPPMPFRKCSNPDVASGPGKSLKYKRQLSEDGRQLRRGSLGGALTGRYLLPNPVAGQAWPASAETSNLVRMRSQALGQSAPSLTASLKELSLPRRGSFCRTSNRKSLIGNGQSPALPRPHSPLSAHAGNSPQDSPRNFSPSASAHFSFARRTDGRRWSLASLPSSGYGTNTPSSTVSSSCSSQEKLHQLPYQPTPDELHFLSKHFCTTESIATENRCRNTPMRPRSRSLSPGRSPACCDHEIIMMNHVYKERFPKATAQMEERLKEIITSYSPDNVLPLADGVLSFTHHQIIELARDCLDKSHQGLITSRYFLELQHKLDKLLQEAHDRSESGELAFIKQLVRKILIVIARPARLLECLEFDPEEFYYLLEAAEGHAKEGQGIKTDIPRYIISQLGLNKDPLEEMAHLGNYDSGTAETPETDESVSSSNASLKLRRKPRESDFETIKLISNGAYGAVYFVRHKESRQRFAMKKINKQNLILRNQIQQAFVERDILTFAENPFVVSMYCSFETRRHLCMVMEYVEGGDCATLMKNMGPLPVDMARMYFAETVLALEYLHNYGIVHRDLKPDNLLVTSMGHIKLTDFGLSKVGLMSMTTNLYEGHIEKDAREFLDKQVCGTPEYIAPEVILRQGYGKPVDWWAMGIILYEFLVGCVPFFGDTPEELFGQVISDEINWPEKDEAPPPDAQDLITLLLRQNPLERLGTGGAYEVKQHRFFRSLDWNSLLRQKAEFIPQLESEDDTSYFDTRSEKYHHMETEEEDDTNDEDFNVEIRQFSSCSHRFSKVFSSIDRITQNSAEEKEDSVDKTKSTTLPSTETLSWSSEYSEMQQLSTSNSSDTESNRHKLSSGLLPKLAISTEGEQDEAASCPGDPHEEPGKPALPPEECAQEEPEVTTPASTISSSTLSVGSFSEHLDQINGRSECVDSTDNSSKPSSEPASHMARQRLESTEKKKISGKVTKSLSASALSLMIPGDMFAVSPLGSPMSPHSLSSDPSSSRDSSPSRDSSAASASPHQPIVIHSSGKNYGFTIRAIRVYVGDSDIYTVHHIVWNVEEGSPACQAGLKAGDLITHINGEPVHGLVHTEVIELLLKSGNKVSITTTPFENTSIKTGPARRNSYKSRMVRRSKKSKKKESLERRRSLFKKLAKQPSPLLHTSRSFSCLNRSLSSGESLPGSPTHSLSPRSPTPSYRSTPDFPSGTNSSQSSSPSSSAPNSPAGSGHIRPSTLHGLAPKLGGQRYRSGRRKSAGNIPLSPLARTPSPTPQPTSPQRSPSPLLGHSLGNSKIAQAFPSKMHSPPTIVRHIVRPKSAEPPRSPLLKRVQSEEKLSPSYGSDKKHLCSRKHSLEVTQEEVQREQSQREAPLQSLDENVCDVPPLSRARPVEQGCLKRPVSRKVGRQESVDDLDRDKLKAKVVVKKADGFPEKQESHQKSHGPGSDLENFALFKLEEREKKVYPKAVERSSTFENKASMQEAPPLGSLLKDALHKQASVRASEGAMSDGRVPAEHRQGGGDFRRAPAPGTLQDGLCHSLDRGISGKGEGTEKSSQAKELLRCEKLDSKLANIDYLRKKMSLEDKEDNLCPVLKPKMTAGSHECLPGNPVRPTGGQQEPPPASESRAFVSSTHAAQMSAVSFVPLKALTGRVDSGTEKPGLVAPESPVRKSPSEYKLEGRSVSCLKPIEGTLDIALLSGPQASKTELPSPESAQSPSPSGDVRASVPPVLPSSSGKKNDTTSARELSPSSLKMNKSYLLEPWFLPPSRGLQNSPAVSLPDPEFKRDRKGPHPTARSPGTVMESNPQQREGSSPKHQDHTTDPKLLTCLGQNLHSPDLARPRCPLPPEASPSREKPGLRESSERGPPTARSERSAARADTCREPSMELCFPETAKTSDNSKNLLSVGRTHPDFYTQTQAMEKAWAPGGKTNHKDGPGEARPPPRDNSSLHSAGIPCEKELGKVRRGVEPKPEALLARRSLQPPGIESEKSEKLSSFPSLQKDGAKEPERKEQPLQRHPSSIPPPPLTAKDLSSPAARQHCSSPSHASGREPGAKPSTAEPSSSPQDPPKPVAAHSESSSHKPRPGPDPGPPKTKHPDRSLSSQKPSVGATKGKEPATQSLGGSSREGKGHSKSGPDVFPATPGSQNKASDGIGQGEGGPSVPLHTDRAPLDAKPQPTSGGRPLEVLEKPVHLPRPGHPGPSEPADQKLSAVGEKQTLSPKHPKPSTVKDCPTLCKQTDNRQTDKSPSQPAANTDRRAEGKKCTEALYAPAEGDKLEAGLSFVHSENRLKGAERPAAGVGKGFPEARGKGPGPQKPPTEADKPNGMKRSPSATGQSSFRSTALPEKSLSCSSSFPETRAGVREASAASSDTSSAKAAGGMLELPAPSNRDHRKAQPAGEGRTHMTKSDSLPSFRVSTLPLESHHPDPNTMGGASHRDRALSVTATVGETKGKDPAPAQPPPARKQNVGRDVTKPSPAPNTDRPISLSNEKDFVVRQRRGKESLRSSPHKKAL

[13] = target: UniProt O95747
[14] = target: SRC (UniProt P12931)
[15] = target: T4, UniProt Q9UEE5
T4 sequence (whole entry): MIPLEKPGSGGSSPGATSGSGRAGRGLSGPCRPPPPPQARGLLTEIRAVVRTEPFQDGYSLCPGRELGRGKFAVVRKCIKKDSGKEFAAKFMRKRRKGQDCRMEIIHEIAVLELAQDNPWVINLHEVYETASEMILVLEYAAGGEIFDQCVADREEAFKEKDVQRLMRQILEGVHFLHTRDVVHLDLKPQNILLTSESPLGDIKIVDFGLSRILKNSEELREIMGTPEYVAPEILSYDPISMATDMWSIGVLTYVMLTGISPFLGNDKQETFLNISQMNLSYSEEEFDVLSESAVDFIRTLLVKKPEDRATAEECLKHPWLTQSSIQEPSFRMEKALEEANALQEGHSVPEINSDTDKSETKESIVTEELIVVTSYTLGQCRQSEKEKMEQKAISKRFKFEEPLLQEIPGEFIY

Measured: pIC50

Sequence of UniProt Q9Y2I7 (Q9Y2I7 whole entry): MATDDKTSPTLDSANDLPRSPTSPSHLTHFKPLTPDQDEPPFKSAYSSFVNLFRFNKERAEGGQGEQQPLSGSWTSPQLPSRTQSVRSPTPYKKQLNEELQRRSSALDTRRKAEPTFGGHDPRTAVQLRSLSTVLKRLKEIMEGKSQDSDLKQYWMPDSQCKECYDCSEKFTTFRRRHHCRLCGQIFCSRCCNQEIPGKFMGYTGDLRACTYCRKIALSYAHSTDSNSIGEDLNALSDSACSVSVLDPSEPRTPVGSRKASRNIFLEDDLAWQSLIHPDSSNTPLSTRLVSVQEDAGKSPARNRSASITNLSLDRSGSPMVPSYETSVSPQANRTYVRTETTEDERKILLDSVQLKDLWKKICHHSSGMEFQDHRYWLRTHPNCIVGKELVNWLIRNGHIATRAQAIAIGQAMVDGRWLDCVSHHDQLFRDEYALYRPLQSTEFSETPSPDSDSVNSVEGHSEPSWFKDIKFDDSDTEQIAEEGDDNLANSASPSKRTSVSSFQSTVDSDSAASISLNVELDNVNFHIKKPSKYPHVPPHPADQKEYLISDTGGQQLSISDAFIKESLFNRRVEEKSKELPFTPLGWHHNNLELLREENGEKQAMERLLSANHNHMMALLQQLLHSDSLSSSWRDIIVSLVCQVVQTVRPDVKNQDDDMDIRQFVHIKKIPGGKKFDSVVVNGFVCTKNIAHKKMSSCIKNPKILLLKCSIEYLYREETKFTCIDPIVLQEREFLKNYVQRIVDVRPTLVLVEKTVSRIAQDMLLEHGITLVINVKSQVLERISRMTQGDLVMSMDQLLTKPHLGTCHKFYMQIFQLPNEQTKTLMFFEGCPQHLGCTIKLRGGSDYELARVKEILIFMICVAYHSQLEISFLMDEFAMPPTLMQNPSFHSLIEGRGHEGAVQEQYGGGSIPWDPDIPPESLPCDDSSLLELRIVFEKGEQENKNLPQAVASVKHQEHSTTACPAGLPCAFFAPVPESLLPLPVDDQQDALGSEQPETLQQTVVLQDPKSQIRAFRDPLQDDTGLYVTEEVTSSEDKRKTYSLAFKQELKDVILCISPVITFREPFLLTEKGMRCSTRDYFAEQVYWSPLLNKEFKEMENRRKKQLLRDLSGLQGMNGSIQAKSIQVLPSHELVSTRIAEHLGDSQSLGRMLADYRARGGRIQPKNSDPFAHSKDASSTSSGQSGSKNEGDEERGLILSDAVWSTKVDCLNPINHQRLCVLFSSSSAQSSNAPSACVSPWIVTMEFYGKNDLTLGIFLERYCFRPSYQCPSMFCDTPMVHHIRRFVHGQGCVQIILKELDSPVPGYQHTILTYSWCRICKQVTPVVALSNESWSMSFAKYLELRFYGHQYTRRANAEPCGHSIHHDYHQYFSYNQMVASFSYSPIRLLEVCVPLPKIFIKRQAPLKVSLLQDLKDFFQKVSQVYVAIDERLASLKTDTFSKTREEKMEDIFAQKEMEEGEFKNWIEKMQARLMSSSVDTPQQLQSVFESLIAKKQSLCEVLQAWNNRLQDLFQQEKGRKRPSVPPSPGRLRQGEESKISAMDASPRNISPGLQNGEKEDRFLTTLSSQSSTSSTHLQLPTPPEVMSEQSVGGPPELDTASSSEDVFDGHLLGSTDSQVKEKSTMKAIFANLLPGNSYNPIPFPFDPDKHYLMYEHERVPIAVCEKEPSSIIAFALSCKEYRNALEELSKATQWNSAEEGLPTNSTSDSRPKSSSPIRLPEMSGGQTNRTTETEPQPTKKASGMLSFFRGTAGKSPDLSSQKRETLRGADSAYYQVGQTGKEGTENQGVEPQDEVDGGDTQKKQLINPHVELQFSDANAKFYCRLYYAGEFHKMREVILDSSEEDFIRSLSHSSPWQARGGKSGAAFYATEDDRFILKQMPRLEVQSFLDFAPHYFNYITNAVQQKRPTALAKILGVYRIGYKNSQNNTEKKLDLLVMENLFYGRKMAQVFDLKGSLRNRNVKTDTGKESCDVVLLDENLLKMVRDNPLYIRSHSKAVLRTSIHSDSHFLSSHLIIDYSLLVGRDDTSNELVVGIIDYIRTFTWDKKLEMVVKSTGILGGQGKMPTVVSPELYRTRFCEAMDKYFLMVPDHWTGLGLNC

CCc1cnn2c(NCc3ccc[n+]([O-])c3)cc(N3CCCC[C@H]3CCO)nc12 [dinaciclib]
< 4.52: all assays above
